The values below come from patent publication EP0536208B1, “1,2-DIHYDRO-3H-DIBENZISOQUINOLINE-1,3-DIONE ANTICANCER AGENTS” (RESEARCH CORPORATION TECHNOLOGIES, INC., priority 1990, dated 1992).

pIC50: −log10 of the molar value.

One experiment relates to FRESH HUMAN TUMORS. As to the kind of experiment: Colony forming assay in fresh human tumors, all tumor types. It counts as cell-based. The following applies: Total of all tumor types; .001 ug/mL continuously; tumor cell survival of less than 50% of control. The protocol: The clonogenic assays were conducted in accordance with the procedure described hereinbelow: 1) Colony Forming Assays in Soft Agar: Fresh human or murine tumors are disaggregated into single cell suspensions using mechanical, hypoosmotic and/or enzymatic (trypsin) methods. The single cells (about 5 X 10^4-10^5) are plated in 35 mm plastic petri dishes onto a 1 ml "feeder layer" of 0.3% agar dissolved in growth medium containing 5-10% vol/vol of heat-inactivated fetal bovine serum, molten 0.3% agar and the antibiotics penicillin (100 u/mL) and streptomycin (100 ug/mL). Drug exposures can be performed for one hour or continuously (drugs added to final plating medium). Tumor cell colonies > 60 uM in size are counted by automated image analysis after 10-20 days of incubation in a humidified, 5-10% CO2-gassed environment maintained at 37°C. Inhibition of colony formation is calculated based on comparisons to control (untreated) plates wherein the growth of hundreds of colonies/plate is typical. […]
Fresh human tumor specimens disaggregated to single cell suspensions and exposed to .001 ug/mL of drug continuously. Percent survival represents the fraction of tumor colonies (> 60 uM size) obtained after drug treatment compared to untreated cells of the same tumor. […] Each tumor sample is analyzed in three different petri dishes (i.e., n = 3 for each sample).

Another experiment deals with Colon-38 Adenocarcinoma. The following applies: mice; cited from earlier work.
In experiment [1] the test system is P-388 lymphocytic leukemia. The following applies: mice; cited from earlier work.
Experiment [2] relates to P-388/ADR (adriamycin-Resis-tant). Particulars: mice; cited from earlier work.
The subject of a further experiment is LOVOp32. As to the kind of experiment: Activity against human colon tumor cells (MTT assay, 3 day drug exposure). Particulars: cells plated 24 hr. prior to drug addition, read-out: Concentration for 50% inhibition of colony formation for human colon tumors. The experiment is classed as cell-based. The protocol:
(§1) For example, the compounds of the present invention were evaluated for cytotoxic activities in cloned human colon carcinomas. The clonogenic assays were conducted in accordance with the procedure described hereinbelow: 1) Colony Forming Assays in Soft Agar: Fresh human or murine tumors are disaggregated into single cell suspensions using mechanical, hypoosmotic and/or enzymatic (trypsin) methods. The single cells (about 5 X 10^4-10^5) are plated in 35 mm plastic petri dishes onto a 1 ml "feeder layer" of 0.3% agar dissolved in growth medium containing 5-10% vol/vol of heat-inactivated fetal bovine serum, molten 0.3% agar and the antibiotics penicillin (100 u/mL) and streptomycin (100 ug/mL). Drug exposures can be performed for one hour or continuously (drugs added to final plating medium). Tumor cell colonies > 60 uM in size are counted by automated image analysis after 10-20 days of incubation in a humidified, 5-10% CO2-gassed environment maintained at 37°C. Inhibition of colony formation is calculated based on comparisons to control (untreated) plates wherein the growth of hundreds of colonies/plate is typical. (Salmon SE, et al., N Engl J Med 298(24):1321-1327, 1978).
(§2) Compounds of the present invention were tested for their in vitro activity in tumor cells sensitive and resistant to standard anti-cancer agents. The tumor cell lines used in this protocol are 8226 human Myeloma^1; 8226/Dox-40^2, L-1210/Murine Leukemia, multidrug resistant L-210/^3, 2780 Human Ovarian Cancer and 2780/AD^4. Each of these resistant cell lines is known as a multidrug resistant or "MDR" cell line. These cell lines produce a 170,00 molecular weight membrane protein termed the P-glycoprotein which acts as an active drug efflux pump. Thus, once a cell produces the P-glycoprotein, it has the capability of pumping out of the cell a large variety of unrelated natural products. […] The protocol for measuring the effectiveness of compounds of the present invention is as follows: 2) In Vitro Tumor Cell Viability Assays Using MTT-Dye: Tumors are processed into a single cell suspension as described above. The cells are plated at a concentration of 3-5 X 10^4/1 mL well into plastic 96-well plates. Growth medium containing 5-10% (vol/vol) heat-inactivated fetal bovine serum and penicillin/streptomycin (as above) is added prior to incubation at 37°C for six days. Afterwards the medium containing the drug is removed, the cells are "washed" by centrifugation in fresh medium or phosphate-buffered saline (pH 7.4). A tetrazolium dye is then added (3,4,5-dimethylthiazol-2-yl)-2,5-diphenyl tetrazolium bromide (MTT). This dye forms a colored formazan product upon activation by mitochondrial reductases in viable cells. Typically, the formazan product is solubilized in acid-propanol or DMSO. The intensity of the color is proportional to viable cell numbers and this is quantitated by spectrophotometric absorbance ([…]) on a micro ELISA plate reader. Test results are calibrated in % control absorbance from untreated tumor cells (Mossman T: J Immunol Meth 65:55-63, 1983). Using the above procedure, Compound 1 was tested for its cytotoxic activity with respect to various tumor cell lines.

For another experiment, the system named is 205p14. Described as above. The experiment is classed as cell-based. The following applies: cells plated 24 hr. prior to drug addition, read-out: Concentration for 50% inhibition of colony formation for human colon tumors. The protocol:
as §1, §2

Experiment [3] has as its system 16-C Mammary Adenocarcinoma. The following applies: cited from earlier work.
A further experiment concerns M5-76 Sarcoma. Particulars: cited from earlier work.
In the next experiment the test system is HT29p30. Briefly: Activity against human colon tumor cells (MTT assay, 3 day drug exposure). It counts as cell-based. The following applies: cells plated 24 hr. prior to drug addition, read-out: Concentration for 50% inhibition of colony formation for human colon tumors. Here is the method: as §1
as §2, with “Growth medium containing 5-10% (vol/vol) heat-inactivated fetal bovine serum and penicillin/streptomycin (as above) is added prior to incubation at 37°C for six days.” left out

The subject of a further experiment is SW80p105. The description is as above. The experiment is classed as cell-based. Particulars: cells plated 24 hr. prior to drug addition, read-out: Concentration for 50% inhibition of colony formation for human colon tumors. The protocol: as §1
as §2, with “Growth medium containing 5-10% (vol/vol) heat-inactivated fetal bovine serum and penicillin/streptomycin (as above) is added prior to incubation at 37°C for six days.” left out

In the case of `COc1cccc2c1C(=O)c1c(O)c3c(c(O)c1C2=O)C[C@@](O)(C(=O)CO)C[C@@H]3O[C@H]1C[C@H](N)[C@H](O)[C@H](C)O1` [Doxorubicin], in the experiment with FRESH HUMAN TUMORS, the “Overall Response” value is 20%. For the same compound, the “Comparative Activity From The Literature, Days of Tumor Growth Delay” value in the experiment on Colon-38 Adenocarcinoma was 10 days. The figures for the “Comparative Activity From The Literature, ILS (Percentage Increased Lifespan)” value in experiment [1] and in experiment [2] were 164 ILS and 18 ILS, respectively.

With `CN(C)CCN1C(=O)c2cccc3cc(N)cc(c23)C1=O` [Amonafide, amino-N-dimethylaminoethylbenz[de]isoquinoline], the “Comparative Activity From The Literature, Days of Tumor Growth Delay” value with Colon-38 Adenocarcinoma is recorded as less than 7 days; in experiment [3], 7 days; in the experiment with M5-76 Sarcoma, 7 days. Besides, the pIC50 was 6.22 in the experiment on LOVOp32, 6.80 in the experiment on 205p14, 6.02 in the experiment on HT29p30 and 6.24 in the experiment with SW80p105. Further, the “Comparative Activity From The Literature, ILS (Percentage Increased Lifespan)” value in [1] is given as 99 ILS; in experiment [2] it was 35 ILS.
